Laboratory results taken from publication PMC7915666, “Antitrypanosomal and Antileishmanial Activity of Chalcones and Flavanones from Polygonum salicifolium” (Pathogens, 2021).
≈ marks a conversion by molar mass, not a printed value. Like-named read-outs stand apart in the source and are kept apart here.

Columns and labels:
T. b. brucei B48 = assay: Alamar Blue (resazurin) assay, multi-drug resistant T. b. brucei B48; format: cell-based; conditions: Trypanosoma brucei, read-out: T. b. brucei EC50, B48
Description: (§1) The four compounds were tested for activity against the following three kinetoplastid pathogens: Trypanosoma brucei brucei, Trypanosoma congolense, and Leishmania mexicana. For the two Trypanosoma species, the compounds were tested in parallel against strains that were resistant to the most common trypanocides. T. b. brucei B48 is highly resistant to the entire classes of diamidines and melaminophenyl arsenicals, and T. congolense DA-Res was rendered resistant to diminazene aceturate by means of in vitro exposure to the drug. […] For the drug-resistant trypanosome strains, highly significant resistance to diamidines was confirmed, but there was no cross-resistance with the chalcones and flavanones. […] While this dataset of two chalcones is self-evidently insufficient for a structure–activity relationship (SAR) analysis, it is clear that the position of the hydroxy and methoxy groups on ring A (Figure 1) influenced the trypanocidal activity without increasing the toxicity.

T. b. brucei 427-WT = assay: Alamar Blue (resazurin) assay, T. b. brucei Lister 427 wild-type bloodstream forms; conditions: for EC50: Trypanosoma brucei; for activity against Trypanosoma species (in words): Trypanosoma species (T. b. brucei and T. congolense)
T. congolense DA-Res = format: cell-based, Trypanosoma congolense; conditions: for EC50: Trypanosoma congolense, read-out: T. congolense EC50, DA-Res
Description: as §1

T. congolense IL3000-WT = assay: Alamar Blue (resazurin) assay, T. congolense IL3000 wild-type bloodstream forms
HFF cells = assay: Drug toxicity assay in human foreskin fibroblast (HFF) cells, resazurin; format: cell-based; conditions: EC50 (HFF)/EC50(427-WT)
[1] = as above; format: cell-based; conditions: HFF (human foreskin fibroblast) cells; human foreskin fibroblasts; highest concentration tested 100 µg/mL; mean ± SEM, n>=3
[2] = 72 h, read-out: T. b. brucei EC50, 427-WT, bloodstream forms, 48 h + 24 h resazurin, mean ± SEM, n>=3

SMILES | EC50 (T. b. brucei B48) [µM] | EC50 (T. b. brucei 427-WT; [2]) [µM] | EC50 (T. congolense DA-Res) [µM] | resistance of clone 6C3 versus IL3000 (T. congolense DA-Res; line adapted in vitro to diminazene aceturate) | activity against T. congolense (in words) (T. congolense IL3000-WT) | EC50 (T. congolense IL3000-WT; Trypanosoma congolense, read-out: EC50 against T. congolense) [µg/mL] | SI (Tbb), selectivity index = EC50(HFF)/EC50(Tbb) (HFF cells) | EC50 at 54 h [1] [µM] | EC50 (T. b. brucei 427-WT; read-out: EC50 against Trypanosoma brucei brucei, standard resazurin-based assay) [µg/mL] | activity against Trypanosoma species (in words) (T. b. brucei 427-WT) | fold less activity than compound 1 against T. congolense (T. congolense IL3000-WT; relative to compound 1) [fold] | fold less activity than compound 1 against T. b. brucei (T. b. brucei 427-WT; relative to compound 1)
N=C(N)c1ccc(/N=N/Nc2ccc(C(=N)N)cc2)cc1 [Diminazene, diminazene aceturate, reference compound] | 2.4 ± 0.36 | 0.15 ± 0.01 | 1.43 ± 0.03 | ~ 10 fold |  |  |  |  |  |  |  | 
COc1cc(O)c(C(=O)/C=C/c2ccccc2)c(OC)c1 [Compound 1, 2′,4′-dimethoxy-6′-hydroxychalcone] | 1.8 | ~2 | 8.8 ± 0.28 |  | moderate activity | 2.5 (≈ 8.79 µM) | >172 | > 350 | 0.58 |  |  | 
N=C(N)c1ccc(OCCCCCOc2ccc(C(=N)N)cc2)cc1 [Pentamidine, reference compound] | 0.72 ± 0.03 | 0.0034 ± 0.0004 |  |  |  |  |  |  |  |  |  | 
COc1cc(O)c(OC)c2c1C(=O)CC(c1ccccc1)O2 (stereo not drawn) [Compound 4, 5,8-dimethoxy-7-hydroxyflavanone] | 51.9 ± 1.6 | 55.3 ± 1.6 | 48 ± 6.2 |  |  |  | >6.0 | > 330 |  | moderate activity |  | 
COc1cc(O)c(OC)c(O)c1C(=O)/C=C/c1ccccc1 [Compound 2, 2′,5′-dimethoxy-4′,6′-dihydroxychalcone] | 13.9 ± 0.6 | 14.6 ± 0.8 | 28.6 ± 1.4 |  |  |  | >22.8 | > 330 |  |  | ~4 | about 8 fold
COc1cc(OC)c2c(c1)OC(c1ccccc1)CC2=O (stereo not drawn) [Compound 3, 5,7-dimethoxyflavanone] | 30.3 ± 1.1 | 30.1 ± 0.95 | 106 ± 15 |  |  |  | >11.7 | > 350 |  | moderate activity |  | 
